Assay results: patent US8965708B2, “Method for the treatment of acquired lymphedema” (The Board of Trustees of the Leland Stanford Junior …, priority 2006, dated 2015)
Entries after “also recorded” stand apart in the source; their conditions may differ.

How the values were obtained:
Log Kow = format: physicochemical
[1] = Permeation through the stratum corneum of human cadaver skin; format: in vitro ADME; conditions: cumulative permeation over time, FIG. 33
Excerpt: FIG. 33. Ketoprofen chemistry. (A) Chemical formula of ketoprofen. (B) Ester modification to improve bioavailability. […] Closed triangles: Methyl ester. Open circles: ethyl ester. Open squares: isopropyl ester. x axis=time in hours.

[2] = test system: TNF-α, MCP-1, VEGF-C, VEGF-D, VEGFR-3, Prox1, LYVE-1 expression; test: Targeted gene expression analysis by quantitative real-time RT-PCR in tail skin; format: in vivo, mouse
Experimental: Primers and probes were from Assays-on-Demand (Applied Biosystems, Foster City, Calif.). cDNA was synthesized from 5 μg of total RNA with Taqman reverse-transcription reagents (Applied Biosystems) and amplified in triplicate at 50° C. for 2 minutes and 95° C. for 10 minutes, followed by 40 cycles of 95° C. for 15 seconds and 60° C. for 1 minute. Reactions without template and/or enzyme were used as negative controls. 18S ribosomal RNA served as an internal control. A standard curve derived from embryonic mouse RNA was plotted for each target gene by linear regression using SPSS software (v. 11.0, Applied Biosystems). RNA quantity was expressed relative to the corresponding 18S control. Fold differences were calculated by dividing the experimental results by the pooled normal results and were plotted on a log 10 scale.

[3] = test system: cytokine levels in tail skin; test: Tissue cytokine assays (Luminex) in tail skin homogenates; format: in vivo, mouse
Experimental: Cytokine levels in tail skin were measured in normal controls and mice with untreated, NSAID-treated, and sTNF-R1-treated lymphedema (n=3 per group) sacrificed on postoperative day 7. The Luminex LabMap200 System was used to measure the levels of 42 cytokines from the supernatant of tissue homogenates. Multiplex cytokine kits were purchased from Panomics (Fremont, Calif.), and the assay was performed according to the manufacturer's recommendation with the following modifications: 25-50 μl of samples, standards, and controls were added in duplicate to 96-well filter plates pre-configured with a panel of anti-cytokine antibodies covalently linked to unique polystyrene beads. The plate was incubated overnight at 4° C. in the dark with shaking at 500 rpm, vacuum aspirated, and washed three times with 140 μl of wash buffer to remove unbound antigen. Biotinylated detection antibody solution (25 μl) was added to each well and incubated for 1 hour with shaking at 500 rpm at room temperature. The plate was incubated with 50 μl of streptavidin-phycoerythrin for 35 minutes and then with 120 μl of reading buffer for 3 minutes at room temperature with shaking. After laser excitation, digital images of the bead array were captured with a CCD camera and analyzed on a computer workstation with BeadView software.

[4] = test system: tail lymphedema in SKH-1 mice; test: Histology and histomorphometric quantitation of epidermal thickness (Example 4); format: in vivo, mouse; conditions: for histological changes in mice with lymphedema: hematoxylin/eosin
Experimental: Immediately after sacrifice, 0.5-g sections of tail were harvested for histological analysis and RNA extraction. Sections extended from a point 4 mm proximal to the surgical incision to 8 mm beyond it. The specimens were fixed overnight in 4% paraformaldehyde, embedded in paraffin, cut into 5-μm sections, stained with hematoxylin and eosin (Richard-Allan Scientific, Kalamazoo, Mich.), and examined by light microscopy.
Epidermal thickness was measured serially using digital images of histology slides stained with hematoxylin and eosin. Processing and analysis were performed using Adobe Photoshop CS4 and ImageJ (http://rsbweb.nih.gov/ij) as previously described with modifications (Sanders J E, et al. Comput Methods Programs Biomed. 1999; 59:167-180). Quantitative measurements were imported to Prism 5 software (GraphPad Software Inc., La Jolla, Calif.) for statistical analysis and graphing.

[5] = test system: tail lymphedema in SKH-1 mice; test: Tail volume quantitation, NSAID / sTNF-R1 treatment (Example 4); format: in vivo, mouse
Experimental: Tail lymphedema was induced in female hairless, immunocompetent SKH-1 mice (Charles River Laboratories, Boston, Mass.) as described. The mice were anesthetized with a solution of ketamine, xylazine, and saline (0.07 ml i.p.). The skin of the tail was circumferentially incised 16 mm distal to its base. The major lymphatic trunks were identified by subcutaneous injection of methylene blue distal to the incision and ablated by limited cautery. The mice were carefully monitored for any visceral signs of distress. Sham surgery controls were treated identically, but without lymphatic cautery. […] All mice were sacrificed in accordance with American Veterinary Medical Association guidelines for rodent euthanasia after day 11 days of observation. After sacrifice, 500 mg sections of the tail were harvested for paraffin embedding and RNA extraction. For all in vivo experiments, housing, husbandry and experimentation were in strict accordance with the Animal Welfare Act and the Guide for the Care and Use of Laboratory Animals.
Sham surgery and normal controls were treated identically with the NSAID (n=8 per group), sTNF-R1 (n=11 per group), or PBS (n=11 normal controls, n=8 sham surgery controls).
Tail volume was measured serially in each mouse, using a digital photographic application of the truncated cone approximation as described.

[6] = test system: post-surgical lymphedema in the tails of SKH-1 mice; test: Histology of tail sections (H&E), VEGF-C study; format: in vivo, mouse; conditions: day 11
Excerpt: For histological evaluation, 11 mice were sacrificed on Day 11 of observation. Immediately following sacrifice, 0.5 gm sections of the tail were harvested. Sections extended from a point 4 mm proximal to the surgical incision to 8 mm beyond it. The specimens were fixed overnight in 4% paraformaldehyde. After paraffin embedding, 5 μm sections were stained with hematoxylin and eosin (H&E, Richard-Allan Scientific). After deparaffinization in xylene, sections were rehydrated though a series of graded alcohol steps starting with 100% EtOH and ending in 50% EtOH. Slides remained in toluidine blue for 2 minutes and were then dehydrated through graded alcohol washes and covered with Cytoseal (Richard Allan Scientific).

[7] = test system: LYVE-1-positive lymphatic vessels; test: LYVE-1 immunohistochemical staining, lymphatic vessel number and area; format: in vivo, mouse
Experimental: 5 μm-thick paraffin sections were de-paraffinized in xylene, re-hydrated in a graded series of ethanol, pretreated with target retrieval solution (Dako, Carpinteria, Calif.) in a pressure cooker, and incubated in a peroxidase block for 10 minutes. Sections were then incubated with rabbit polyclonal anti-LYVE-1 antibody (1:200, Upstate Cell Signaling Solutions, Lake Placid, N.Y.) for 1 hour at room temperature, followed by horseradish peroxidase (HRP)-conjugated secondary antibody for 30 minutes at room temperature and detection with DAB for 4 minutes (Envision System Kit, Dako). Tissue sections were counterstained with Gill 1 Hematoxylin (Richard-Allan Scientific, Kalamazoo, Mich.). for 15 seconds, then dehydrated in graded ethanol and coverslipped with CoverSafe (American Master*Tech, Lodi, Calif.).
5 μm-thick paraffin sections were prepared and stained for LYVE-1 as described in example 1, above.
Mean lymphatic vessel number was determined by averaging the number of total lymphatic vessels in all of the fields of each slide at 10× magnification. The observer was blinded to the treatment status of the animal in each case. Lymphedema was characterized by an increase in LYVE-1-positive vessel number/field that was not observed in normals or after VEGF-C-treatment: lymphedema, 7.3±4.0 (P=0.02 compared to normal); VEGF-C, 1.3±0.9 (N.S.); and normal, 1.0±0.8.
Lymphatic vessel area was quantitated according to the formula π·r1·r2. […] Both vessel number and size returned substantially to normal following exogenous administration of recombinant VEGF-C.

[8] = test system: post-surgical lymphedema in the tails of SKH-1 mice; test: Tail volume quantitation, VEGF-C in experimental lymphedema (Example 3); format: in vivo, mouse; conditions: single subcutaneous dose of 200 ng on post-surgical day 3
Experimental: Post-surgical lymphedema was experimentally created in the tails of female hairless, immunocompetent SKH-1 mice (Charles River Laboratories, Boston Mass.) as described in example 1, above. Therapeutic VEGF-C lymphangiogenesis in experimental lymphedema. On post-surgical day 3, the treated animal subjects received parenteral recombinant human VEGF-C (R&D Systems Inc., Minneapolis, Minn.). Each animal received a single subcutaneous dose of 200 ng of the growth factor (2 mg/mL), equally divided between the proximal and distal wound edges. Untreated lymphedema subjects received subcutaneous saline analogously administered.
Tail volume was serially quantitated in 19 mice divided into four treatment categories: normal, untreated lymphedema, VEGF-C-treated lymphedema, and surgical sham controls. For animals who had surgical intervention, this was defined to have occurred on day 0. All of the mice had quantitation of baseline tail volume; thereafter, volume was quantitated at defined time points: days 2, 4, 7, 9, 11, 14, 16, 18, 21, 23 28, 35, 42, 50, 57, 63, 65, 67 and 71. […] A single digital image of each tail was recorded with an OLYMPUS D520 Zoom digital camera at 1600×1200SHQ resolution. […] The diameter of the tail was digitally, serially quantitated at distances of 8 mm beginning at the proximal end of the tail. […]

[9] = test system: clearance of luc+ splenocytes from lymphedematous tails of FVB/N mice; test: Functional in vivo bioluminescence imaging of immune traffic, VEGF-C study; set-up: species or system mouse
Experimental: Experimental lymphedema was created surgically in the tails of 20 FVB/N female wild type mice (Jackson Laboratories, […]), using the technique described above, and functionally compared with normal mice (n=8). The lymphedematous mice were treated with human recombinant VEGF-C or with saline, as described above, on post-surgical day 3. For in vivo bioluminescence imaging, spleens from transgenic luc+ heterozygous animals, expressing firefly luciferase under the control of a chicken beta-actin promoter, as previously described (Beilhack et al., 2005; Cao et al., 2004), were placed into single cell suspension. These single cell suspensions consisted of different hematopoietic lineages: ˜40% were CD19+ B cells, ˜20% CD4+ T cells, ˜10-15% were CD8+ T cells, 3% NK1.1+ NK cells and the rest were GR.1+ granulocytes, Mac-1+ macrophages, CD11c+ dendritic cells and rarer cell populations. 4×10^6 splenocytes (>97% CD45+) in PBS were injected in a volume of […] into the tail interstitium/emission]×100%. 1 cm caudal to the site of surgery, in lymphedema mice and normal controls, respectively. […] The efficiency of cellular lymphatic drainage was determined by direct imaging of light emission, with quantitation of the relative change in light emission from that measured at 20 hours after cell injection, as follows: relative photon emission=[emissionday 7/emission20 hours]×100%.

COC(=O)C(C)c1cccc(C(=O)c2ccccc2)c1 (centres unmarked) [ketoprofen methyl ester]
Log Kow (Log Kow): 3.65
ability to permeate the stratum corneum of human cadaver skin [1]: most penetration

CC(C)OC(=O)C(C)c1cccc(C(=O)c2ccccc2)c1 (centres unmarked) [ketoprofen isopropyl ester]
Log Kow (Log Kow): 4.56

pegsunercept [sTNF-R1]
expression of other targeted genes (other than TNF-α) ([2]; day 11): did not affect other genes
TNF-α expression (mRNA) ([2]; day 11, lymphedema mice): reduced TNF-α expression to control levels; also recorded: downregulated
VEGF-C expression (mRNA) ([2]; lymphedema mice): decreased
VEGFR-3 expression ([2]; lymphedema mice): decreased
MCP-1 tissue levels (protein) ([3]; postoperative day 7): further increased
MCP-3 tissue levels (protein) ([3]; postoperative day 7): significantly reduced
eotaxin tissue levels ([3]; postoperative day 7): decreased
MCP-3 tissue levels (protein) ([3]; postoperative day 7, listed as sTNFR-1): inhibited
epidermal thickness (ET) compared to untreated LY mice ([4]; FIG. 14B): significantly increased
epidermal thickness increased, compared to untreated mice with lymphedema ([4]; day 11): 16.0±2.5%
histological changes in mice with lymphedema ([4]; day 11, listed as sTNFR1): no discernible amelioration
histological changes in mice with lymphedema ([4]; day 11, listed as sTNFR-1): exacerbates the pathology
tail volume, % of baseline ([5]; day 7, lymphedema mice, s.c. every other day from day 3): 183.7±26.8%
edematous response (tail volume) of lymphedema mice ([5]; lymphedema mice, systemic s.c. treatment): significantly more edematous
effect on tail volume in normal and sham surgery mice ([5]; normal and sham surgery mice): no discernable effect

CCOC(=O)C(C)c1cccc(C(=O)c2ccccc2)c1 (centres unmarked) [ketoprofen ethyl ester]
Log Kow (Log Kow): 4.14

B1: VEGF-C: parenteral recombinant human VEGF-C (R&D Systems Inc.), growth factor (protein, UniProt P49767 112-227, looked up)
Vascular endothelial growth …: AHYNTEILKSIDNEWRKTQCMPREVCIDVGKEFGVATNTFFKPPCVSVYRCGGCCNSEGLQCMNTSTSYLSKTLFEITVPLSQGPKPVTISFANHTSCRCMSKLDVYRQVHSIIRR
histological pattern of tail tissue [6]: substantial reversion to the normal pattern
LYVE-1-positive vessel number/field ([7]; 10x magnification, day 11): 1.3±0.9
average lymphatic area/field (LYVE-1-positive vessel area) ([7]; formula π·r1·r2, n=3): 2992±1311 μm^2
size and number of LYVE-1-positive skin lymphatics ([7]; vs untreated lymphedema): reduction in the observed size and number of these skin lymphatics; also recorded: reduction in the number and size of LYVE-1-positive vessels
mean tail volume compared with untreated lymphedema [8]: significant decrease in volume; also recorded: diminution in the mean tail volume; also recorded: volume reduction, compared with untreated lymphedema, was evident by day 7
clearance of bioluminescent immunocytes (immune traffic) ([9]; day 7 post-injection): ameliorated
relative photon density, % of the observed value 20 hours post-injection ([9]; day 7 post-injection (post-operative day 14), n=12): 24±9%
